Columns and labels:
Parameters in all cases: species or system female athymic CD1 mice
[1] = tested on: A549; experiment: In vivo solid tumor disease model, A549; settings: 14 days
[2] = tested on: U87MG; experiment: In vivo solid tumor disease model, U87MG; settings: 75 mg/kg p.o. once daily, 14 days
Excerpt: In Vivo Solid Tumor Disease Model
This test measures the capacity of compounds to inhibit solid tumor growth.
Tumor xenografts are established in the flank of female athymic CD1 mice (Charles River Inc.), by subcutaneous injection of 1×10^6 U87, A431 or SKLMS cells/mouse. Once established, tumors are then serially passaged s.c. in nude mice hosts. Tumor fragments from these host animals are used in subsequent compound evaluation experiments. For compound evaluation experiments female nude mice weighing approximately 20 g are implanted s.c. by surgical implantation with tumor fragments of ˜30 mg from donor tumors. When the tumors are approximately 100 mm^3 in size (˜7-10 days following implantation), the animals are randomized and separated into treatment and control groups. Each group contains 6-8 tumor-bearing mice, each of which is ear-tagged and followed individually throughout the experiment.
Mice are weighed and tumor measurements are taken by calipers three times weekly, starting on Day 1. These tumor measurements are converted to tumor volume by the well-known formula […]. The experiment is terminated when the control tumors reach a size of approximately 1500 mm^3. […] In addition to tumor volumes, body weight of animals is monitored twice weekly for up to 3 weeks. […]

[3] = tested on: Colo265; experiment: In vivo solid tumor disease model, Colo265; settings: Colo265, 30 mg/kg i.p. once daily, 14 days
[4] = tested on: MV4-11; experiment: In vivo solid tumor disease model, MV4-11; settings: MV4-11, 20 mg/kg p.o. once daily, 14 days

Compound: CN(C)Cc1cccc(-c2cc3nccc(Oc4ccc(NC(=O)CC(=O)Nc5ccccc5F)cc4F)c3s2)c1 [drawing 462]
- Tumor Growth Inhibition (%) ([1]; A549, 20 mg/kg p.o. once daily): b (% TGI in the range of 50-74)

Compound: CCn1cnc(-c2cc3nccc(Oc4ccc(NC(=O)CC(=O)Nc5ccccc5)cc4F)c3s2)c1 [drawing 460]
- Tumor Growth Inhibition (%) [2]: b (% TGI in the range of 50-74)

Compound: CCn1cnc(-c2cc3nccc(Oc4ccc(NC(=O)CC(=O)Nc5ccccc5F)cc4F)c3s2)c1 [drawing 461]
- Tumor Growth Inhibition (%) [2]: b (% TGI in the range of 50-74)

Compound: CN(C(=O)CC(=O)Nc1ccc(Oc2ccnc3cc(-c4cn(CCN5CCCC5)cn4)sc23)c(F)c1)c1ccccc1
- Tumor Growth Inhibition (%) [3]: b (% TGI in the range of 50-74)

Compound: CCn1cnc(-c2cc3nccc(Oc4ccc(NC(=O)C5(C(=O)Nc6ccccc6)CC5)cc4F)c3s2)c1 [drawing 463]
- Tumor Growth Inhibition (%) ([1]; A549, 40 mg/kg p.o. once daily): b (% TGI in the range of 50-74)

Compound: CN1CCN(CCN(C)Cc2ccc(-c3cc4nccc(Oc5ccc(NC(=O)CC(=O)Nc6ccccc6)cc5F)c4s3)cc2)CC1 [drawing 464]
- Tumor Growth Inhibition (%) [4]: b (% TGI in the range of 50-74)
